This note sets out measurements from PubChem BioAssay (NCI).

What all share (assay): growth of human tumour cells (NCI), 48 h
The subject of assay [1] is MOLT-4 leukemia.
Assay [2] deals with COLO 205 colon.
Assay [3] concerns SW-620 colon.
Assay [4] concerns EKVX NSCLC.
The subject of assay [5] is IGROV1 ovarian.
Assay [6] has as its system HCT-15 colon.
Assay [7] concerns SK-OV-3 ovarian.
For assay [8], the system named is NCI-H460 lung.
Assay [9] concerns NCI/ADR-RES ovarian.
Assay [10] relates to UO-31 renal.
For assay [11], the system named is UACC-62 melanoma.
In assay [12] the test system is SF-295 CNS.
The test system of assay [13] is HL-60(TB) leukemia.
Assay [14] deals with NCI-H522 lung.
For assay [15], the system named is OVCAR-4 ovarian.
In assay [16] the test system is SF-268 CNS.
The test system of assay [17] is T-47D breast.
For assay [18], the system named is KM12 colon.
Assay [19] concerns 786-0 renal.

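Results reflect a 48-hour exposure of cells in 96-well plates to compound at five concentrations. TGI: concentration producing complete growth inhibition.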

`CC(C)(C)c1cc(/C=C(\C#N)C(=O)NCCO)cc(C(C)(C)C)c1O`: the TGI is 59.1 µM in assay [1]; 37.2 µM in assay [2]; 97 µM in assay [3]; 70.4 µM in [4]; above 100 µM in assay [5]; 58.6 µM in assay [6]. For the same compound, the TGI is 60.2 µM in assay [7]; 43.5 µM in assay [8]; 75.3 µM in [9]; 49.7 µM in [10]; 27.5 µM in assay [11]; 40.8 µM in assay [12]. The TGI in assay [13] was 36.9 µM; in [14], 37 µM; in assay [15] it was 76.5 µM; in assay [16], above 100 µM; in assay [17], 76.8 µM; in assay [18], 52.7 µM. This compound had a TGI in assay [19] of 48.3 µM.
Consider `CCOC(=O)C(CC#Cc1ccc(C#CCC(NC(C)=O)C(=O)OCC)cc1)NC(C)=O` (stereo not given), for which the TGI in assay [1], in assay [2], in [3], in assay [4], in assay [5] and in [6] was above 100 µM throughout. In addition, the TGI in [7], in assay [8], in assay [9], in assay [10], in assay [11] and in [12] was above 100 µM throughout. Also, the TGI in assay [13], in assay [14], in assay [15], in assay [16], in assay [17] and in assay [18] was above 100 µM throughout. In assay [19], this compound yielded a TGI above 100 µM.
Turning to `Brc1cccc(N=NN2CCCC2)c1`, the TGI in [1], in [2], in [3], in assay [4], in [5] and in [6] was above 100 µM each time. Besides, the TGI in assay [7], in assay [8], in assay [9], in assay [10], in assay [11] and in [12] was above 100 µM in each case. Besides, the TGI in assay [13], in [14], in assay [15], in assay [16], in assay [17] and in assay [18] was above 100 µM each time. This compound came in with a TGI in assay [19] above 100 µM.
In the case of `Cc1c2ncccc2cc2oc3ccccc3c(=O)c12`, the TGI is 23.5 µM in assay [1]; above 100 µM in [2]; above 100 µM in assay [3]; above 100 µM in assay [4]; above 100 µM in assay [5]; above 100 µM in assay [6]. The TGI in [7], in assay [8], in assay [9], in assay [10], in assay [11] and in [12] was above 100 µM each time. Moreover, the TGI in [13] was above 100 µM; in assay [14], above 100 µM; in assay [15], above 100 µM; in [16], above 100 µM; in assay [17] it was 61.7 µM; in assay [18], above 100 µM. The TGI in assay [19] is above 100 µM.
Consider `CCC(C)C(=O)OC1CC2(C)C(c3ccoc3)OC(=O)CC23OC2(C)OC34C(OC(=O)C(C)C)C3(O)C(OC(=O)C5(C)OC5C)C5(C)CC3(O)C(C)(C5CC(=O)OC)C14O2` (stereo not given), for which the TGI in assay [1] is 65.8 µM; in assay [2], 57.5 µM; in assay [3], above 100 µM; in assay [4], above 100 µM; in assay [5], above 100 µM; in assay [6] it was above 100 µM. Further, the TGI in assay [7], in assay [8], in assay [9], in [10], in [11] and in assay [12] was above 100 µM throughout. Further, the TGI was 38.9 µM in [13]; above 100 µM in assay [14]; above 100 µM in [15]; above 100 µM in [16]; above 100 µM in assay [17]; above 100 µM in assay [18]. In assay [19], this compound came in with a TGI above 100 µM.
Consider `O=C(Nc1ccccc1C(=O)NCCCO)/C(=C/c1ccccc1O)NC(=O)c1ccccc1`, for which the TGI in [1], in [2], in [3], in assay [4], in [5] and in assay [6] was above 100 µM throughout. In addition, the TGI in assay [7] is above 100 µM; in assay [8] it was above 100 µM; in [9] it was 69.1 µM; in assay [10] it was above 31.6 µM; in assay [11], 60 µM; in assay [12] it was above 75.8 µM. In addition, the TGI in assay [13], in [14], in assay [15], in assay [16], in assay [17] and in assay [18] was above 100 µM in each case. Also, the TGI in assay [19] is above 89.9 µM.
In the case of `CC(=S)N=Cc1c(O)cc(C)oc1=O`, the TGI in [1], in assay [2], in assay [3], in [4], in assay [5] and in assay [6] was above 100 µM throughout. The TGI in assay [7], in assay [8], in assay [9], in assay [10], in assay [11] and in [12] was above 100 µM throughout. Besides, the TGI in assay [13], in assay [14], in assay [15], in assay [16], in assay [17] and in [18] was above 100 µM in each case. In [19], this compound yielded a TGI above 100 µM.
For `NC(=O)C(=CNC(=S)c1ccncc1)C(N)=O`, the TGI in assay [1], in [2], in [3], in assay [4], in [5] and in [6] was above 100 µM in each case. The TGI in [7], in assay [8], in assay [9], in assay [10], in assay [11] and in assay [12] was above 100 µM throughout. Besides, the TGI in [13], in [14], in assay [15], in [16], in assay [17] and in assay [18] was above 100 µM throughout. In addition, the TGI in [19] was above 100 µM.
As for `Nc1c(C(=O)c2ccc(Cl)cc2)[nH]c(NCc2ccccc2)c1C(=S)Nc1ccccc1`, the TGI is 6.49 µM in assay [1]; 26.2 µM in assay [2]; 3.63 µM in assay [3]; 20.1 µM in assay [4]; 6.43 µM in [5]; 3.36 µM in assay [6]. Moreover, the TGI in assay [7] is 49.8 µM; in assay [8], 3.49 µM; in [9], 24.2 µM; in [10], 3.02 µM; in [11] it was 21 µM; in assay [12] it was 3.32 µM. Further, the TGI is 14 µM in assay [13]; 3.38 µM in [14]; 4.15 µM in assay [15]; 8.44 µM in assay [16]; 65.1 µM in assay [17]; 3.24 µM in assay [18]. In addition, the TGI in assay [19] stood at 3.14 µM.
As to `COc1cc2c(/C=C3/C(=O)Nc4ccccc43)c(Cl)[nH]c2cc1C`, the TGI amounted to 14.2 µM in [1]; 1.73 µM in assay [2]; 59 µM in [3]; 25.1 µM in assay [4]; 1.1 µM in assay [5]; 11 µM in assay [6]. Besides, the TGI in assay [7] came to 0.141 µM; in assay [8] it was 15.7 µM; in assay [9], 0.894 µM; in [10], 20.7 µM; in assay [11] it was 15.5 µM; in [12] it was 1.19 µM. Further, the TGI in assay [13] came to 3.34 µM; in [14] it was 2.4 µM; in assay [15], 21.1 µM; in assay [16], 18.5 µM; in assay [17], 41.1 µM; in assay [18], 0.232 µM. In assay [19], this compound showed a TGI of 13.9 µM.
In the case of `N#Cc1cc2c(cc1Cl)Sc1nccn1S2(=O)=O`, the TGI amounted to 2.54 µM in assay [1]; 31.5 µM in [2]; 14.4 µM in assay [3]; 35.9 µM in [4]; 13.6 µM in [5]; 3.28 µM in [6]. Besides, the TGI in [7] was 18.1 µM; in [8] it was 32.2 µM; in assay [9], 3.9 µM; in assay [10] it was 10.7 µM; in [11], 7.32 µM; in assay [12], 12.2 µM. Further, the TGI in assay [13] stood at 16.6 µM; in assay [14], 4.11 µM; in [15], 22.1 µM; in assay [16] it was 13 µM; in assay [17], 8.57 µM; in [18], 20.7 µM. In addition, the TGI in assay [19] was 28.8 µM.
As to `CC1(C)C=C(S(=O)(=O)c2ccccc2)Oc2ccccc2O1`, the TGI in assay [1] was 71.9 µM; in assay [2], 35.1 µM; in [3], above 100 µM; in assay [4] it was 73.4 µM; in assay [5] it was above 100 µM; in [6], above 100 µM. The TGI in assay [7] was above 100 µM; in [8] it was above 100 µM; in assay [9] it was above 100 µM; in assay [10] it was 86.2 µM; in assay [11] it was above 100 µM; in assay [12], above 100 µM. Moreover, the TGI in assay [13] is 46.2 µM; in assay [14], above 100 µM; in assay [15], above 100 µM; in assay [16], above 100 µM; in [17], 96.4 µM; in [18] it was above 100 µM. In addition, the TGI in assay [19] is above 100 µM.
In the case of `O=c1c2ccccc2nc(Nc2cccc(Cl)c2)n1/N=C/C=C/c1ccccc1`, the TGI in assay [1], in [2], in assay [3], in assay [4], in assay [5] and in [6] was above 100 µM throughout. Moreover, the TGI in [7], in assay [8], in assay [9], in assay [10], in assay [11] and in assay [12] was above 100 µM throughout. The TGI in [13], in assay [14], in assay [15], in assay [16], in [17] and in assay [18] was above 100 µM each time. Also, the TGI in [19] was above 100 µM.
In the case of `Cc1nn(-c2cc(Cl)ccc2[N+](=O)[O-])c(C)c1Cl`, the TGI in assay [1], in assay [2], in assay [3], in [4], in assay [5] and in assay [6] was above 100 µM each time. Also, the TGI in assay [7], in [8], in [9], in [10], in [11] and in assay [12] was above 100 µM throughout. Also, the TGI in assay [13], in [14], in assay [15], in [16], in [17] and in [18] was above 100 µM throughout. In addition, the TGI in assay [19] was above 100 µM.
For the compound `O=C1CSC(c2cccs2)N1c1nc2cc3sc(N4C(=O)CSC4c4cccs4)nc3cc2s1` (stereo not given), the TGI in assay [1] was above 50 µM; in assay [2], 3.18 µM; in [3], above 50 µM; in assay [4], above 50 µM; in assay [5], above 50 µM; in assay [6] it was above 50 µM. In addition, the TGI in assay [7], in assay [8], in assay [9], in assay [10], in assay [11] and in assay [12] was above 50 µM throughout. The TGI in [13], in assay [14], in [15], in assay [16], in assay [17] and in assay [18] was above 50 µM in each case. Moreover, the TGI in assay [19] was above 50 µM.
